The source of these data is patent US12404304B1, “Telomerase reverse transcriptase (TERT) expression enhancing compounds and methods for using the same” (Sierra Sciences, LLC, priority 2007, dated 2025).

Structures are written as SMILES. Like-named read-outs stand apart in the source and are kept apart here.

Data set [1] concerns viable cells in culture.
The subject of data set [2] is human TERT expression (hTERT mRNA). In words: Quantitative real-time RT-PCR of hTERT mRNA expression (Ct, transcripts) in compound-treated cells. The data set is classed as cell-based. The procedure, abridged: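 Read-out is cycle threshold, the cycle at which probe fluorescence released by Taq 5′-nuclease activity crosses a set level; Ct falls as hTERT mRNA rises. cDNA of treated and untreated cells was compared, with starting transcripts quantified against a known-cDNA standard curve.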
Background: Quantitative PCR measures a nucleic acid by following its amplification.

For data set [3], the system named is viable cells in culture. Nature of the data set: Cell viability assay (CellTiter-Glo Luminescent Cell Viability Assay, ATP quantitation, percent of vehicle control). In general terms: ATP-based viability assays read luminescence as a measure of living cells.

As for `Fc1cc(Br)cc2c1NC(c1cccnc1)C1CC=CC21` (stereo not shown) [compound 1457], the “Average Cell Viability after 24 Hours (% DMSO)” value with viable cells in culture [1] is given as 57.76 % DMSO. In data set [2], the “Average Number of hTERT Transcripts” value came out at 12.20.
For `Fc1cc(F)c2c(c1)C1C=CCC1C(c1cccnc1)N2` (stereo not shown) [compound 1463], in that order: 62.06 % DMSO and 174.29.
For `O=C(NCCc1c[nH]cn1)c1cc(-c2cccs2)on1` [compound 1523], in that order: 87.71 % DMSO and 513.46.
Regarding `Cc1c(OS(=O)(=O)c2ccccc2)ccc2c3c(c(=O)oc12)CCCC3` [compound 1533], in data set [2], the “Average Number of hTERT Transcripts” value is 35.76. In the data set with viable cells in culture [3], the “Average Cell Viability after 24 Hours (% DMSO)” value is reported as 99.57 % DMSO.
For `CS(=O)(=O)N1CCN(c2ccc(NC(=O)c3cccc(OCc4ccccc4)c3)cc2)CC1` [compound 1534], in that order: 3.18 and 90.05 % DMSO.
For `Cc1ccc(S(=O)(=O)Nc2ccc([N+](=O)[O-])cc2)cc1` [compound 1535], in that order: 3.69 and 88.02 % DMSO.
For `COC(=O)COc1ccc(NC(=O)c2ccccc2I)cc1` [compound 1536], in that order: 7.34 and 65.12 % DMSO.
As for `COC(=O)COc1ccc(NC(=O)c2cccc(C)c2)cc1` [compound 1537], in data set [2], the “Average Number of hTERT Transcripts” value is recorded as 9.58. Also, the “Average Cell Viability after 24 Hours (% DMSO)” value with viable cells in culture [3] came out at 67.92 % DMSO.
For `CC(C)c1cccc(C(C)C)c1NC(=O)c1ccc(OCC(=O)OC2CCCCC2)cc1` [compound 1538], in that order: 10.53 and 74.17 % DMSO.
For `Cc1ccc(C)c(NC(=O)c2ccccc2NS(=O)(=O)c2cc([N+](=O)[O-])ccc2C)c1` [compound 1539], in that order: 37.11 and 65.11 % DMSO.
For `S=C(Nc1ccc(Oc2ccccc2)cc1)Nc1ccc(Cl)cc1Cl` [compound 1540], in that order: 9.11 and 68.10 % DMSO.
With `COc1ccc(NC(=S)NCc2ccco2)c(OC)c1` [compound 1541], the “Average Number of hTERT Transcripts” value in data set [2] is listed as 3.41. Besides, the “Average Cell Viability after 24 Hours (% DMSO)” value in the data set on viable cells in culture [3] stood at 104.75 % DMSO.
For `CCN(Cc1ccncc1)C(=O)c1cccs1` [compound 1542], in that order: 3.43 and 111.82 % DMSO.
For `CCOC(=O)c1c(NC(=O)CCN2C(=O)c3ccccc3C2=O)sc2c1CCC(C)C2` (stereo not shown) [compound 1543], in that order: 3.71 and 82.75 % DMSO.
For `OCCN1CCN(c2ncnc3scc(-c4ccccc4)c23)CC1` [compound 1544], in that order: 3.85 and 104.59 % DMSO.
As to `CC1CCc2c(sc3ncnc(N4CCCC(C)C4)c23)C1` (stereo not shown) [compound 1545], the “Average Number of hTERT Transcripts” value in data set [2] is reported as 4.40. Further, in the data set on viable cells in culture [3], the “Average Cell Viability after 24 Hours (% DMSO)” value turned out to be 43.72 % DMSO.
In the case of `Cc1ccccc1OCC(=O)OCc1ccc([N+](=O)[O-])cc1` [compound 1548], the “Average Number of hTERT Transcripts” value in data set [2] was determined as 5.77. In addition, the “Average Cell Viability after 24 Hours (% DMSO)” value in the data set with viable cells in culture [3] was found to be 99.62 % DMSO.
For `COC(=O)c1ccc(COC(=O)CCS(=O)(=O)c2ccc(C)cc2)cc1` [compound 1549], in that order: 8.60 and 99.71 % DMSO.
For `C=CCN(CC=C)CCCOc1ccccc1` [compound 1550], in that order: 12.90 and 96.87 % DMSO.
With `COC(=O)COc1ccc(S(=O)(=O)NCc2ccc(C)cc2)cc1` [compound 1551], the “Average Number of hTERT Transcripts” value in data set [2] was 16.60. For the same molecule, in the data set with viable cells in culture [3], the “Average Cell Viability after 24 Hours (% DMSO)” value is listed as 40.32 % DMSO.
For `c1ccc(-c2nc3ccccn3c2Nc2ccc3c(c2)OCCO3)nc1` [compound 1552], in that order: 21.09 and 64.55 % DMSO.
For `O=C(COc1ccccc1)Nc1ccc(C(=O)NCC2COc3ccccc3O2)cc1` (stereo not shown) [compound 1553], the “Average Number of hTERT Transcripts” value in data set [2] came to 23.58. In the data set with viable cells in culture [3], the “Average Cell Viability after 24 Hours (% DMSO)” value turned out to be 77.33 % DMSO.
For `Cc1ccc(NC(=O)CCC(=O)OCC(=O)c2ccc(Br)cc2)c(C)c1` [compound 1554], in that order: 46.62 and 71.31 % DMSO.
For `CC(C)(C)c1cc(-c2nc3ccccc3[nH]2)c(O)c(-c2nc3ccccc3[nH]2)c1` [compound 1555], in that order: 52.10 and 90.08 % DMSO.
Consider `CSc1nc(C2CC2)cc(-c2ccccc2)c1C#N` [compound 1556], for which the “Average Number of hTERT Transcripts” value in data set [2] came out at 85.40. Also, the “Average Cell Viability after 24 Hours (% DMSO)” value with viable cells in culture [3] is recorded as 90.02 % DMSO.
Regarding `NCCC(=O)N[C@@H](Cc1cnc[nH]1)C(=O)O` [compound 1557], the “Average Number of hTERT Transcripts” value in data set [2] is 54.80. Also, the “Average Cell Viability after 24 Hours (% DMSO)” value in the data set on viable cells in culture [3] was found to be 97.77 % DMSO.
